Values joined by “and” are separate entries in the source; they are usually repeats but may differ in a detail not shown here. Identical values can stand only once.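 Tested at 5 concentrations; 48 h exposure; 96-well plates; endpoints linearly interpolated, else capped at highest concentration. GI50 is the concentration that inhibits growth by half. TGI is the concentration that stops growth completely.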
What was measured:
Experiment in all cases: inhibition of tumour cell growth, NCI panel, 48 h
IGROV1 ovarian = test system: IGROV1 ovarian
A549 NSCLC = test system: A549 NSCLC
SF-268 CNS = test system: SF-268 CNS
RXF 393 renal = test system: RXF 393 renal
DMS 114 small cell lung = test system: DMS 114 small cell lung
EKVX NSCLC = test system: EKVX NSCLC
UACC-62 melanoma = test system: UACC-62 melanoma
HS 578T breast = test system: HS 578T breast
MDA-MB-435 = test system: MDA-MB-435

Compound | TGI (IGROV1 ovarian) [µM] | TGI (A549 NSCLC) | TGI (SF-268 CNS) | TGI (RXF 393 renal) | TGI (DMS 114 small cell lung) | TGI (EKVX NSCLC) | TGI (UACC-62 melanoma) | GI50 (IGROV1 ovarian) [µM] | GI50 (A549 NSCLC) [µM] | GI50 (SF-268 CNS) [µM] | GI50 (RXF 393 renal) | GI50 (DMS 114 small cell lung) | GI50 (EKVX NSCLC) | GI50 (UACC-62 melanoma) [µM] | TGI (HS 578T breast) [µM] | TGI (MDA-MB-435) [µM] | GI50 (HS 578T breast) [µM] | GI50 (MDA-MB-435) [µM]
Cc1c(/C=N/NS(=O)(=O)c2ccccc2)no[n+]1[O-] | > 100 | > 100 µM | > 100 µM | > 100 µM | > 100 µM | > 100 µM | > 100 µM |  |  |  |  |  |  |  |  |  |  | 
CCOc1ccc(N=Cc2cccc3cccnc23)cc1 | > 100 | > 100 µM | > 100 µM | > 100 µM | > 100 µM | > 100 µM | > 100 µM |  |  |  |  |  |  |  |  |  |  | 
CC(O)/C=C/C(CCC(C)CO)C(C)C (stereo not drawn) | > 100 | > 100 µM | > 100 µM | > 100 µM | > 100 µM | > 100 µM | > 100 µM |  |  |  |  |  |  |  |  |  |  | 
COc1ccc(C=C2C(=O)OC(C)(C)OC2=O)cc1OC | > 100 | > 100 µM | > 100 µM |  | > 100 µM | > 100 µM | > 100 µM |  |  |  |  |  |  |  |  |  |  | 
CCCCCCCCCCCCCCCCCC(=O)OCC(CN(C)CCN(C)C)OC(=O)CCCCCCCCCCCCCCCCC (stereo not drawn) | > 100 | > 100 µM | > 100 µM | > 100 µM | > 100 µM | > 100 µM | > 100 µM |  |  |  |  |  |  |  |  |  |  | 
COc1ccc(/C=N/N=C(\N)NO)cc1OC | > 100 | 95.8 µM | 73.6 µM | 67.4 µM | 92.5 µM | > 100 µM | 72.1 µM |  |  |  |  |  |  |  |  |  |  | 
O=S(=O)([O-])c1cccc2cccc(N=Cc3ccccc3[O-])c12.O=S(=O)([O-])c1cccc2cccc(N=Cc3ccccc3[O-])c12.[O]=[U]=[O] | > 100 | > 100 µM | > 100 µM | 25.1 µM | > 100 µM | > 100 µM | > 100 µM | 70.6 | 44.4 | > 100 | 10.7 µM | 54 µM | > 100 µM | > 100 |  |  |  | 
O=C1C=C[C@@]23CC1C(O)C[C@H]2C=Cc1ccccc13 (stereo partly drawn) | > 100 | > 100 µM | > 100 µM |  | > 100 µM |  | > 100 µM |  |  |  |  |  |  |  |  |  |  | 
C/C(O)=C(\N=O)C(=O)NCCc1ccccc1 | > 100 | > 100 µM | > 100 µM | > 100 µM | > 60 µM | > 100 µM | > 100 µM |  |  |  |  |  |  |  |  |  |  | 
Cc1ccc(NC(=O)CC2C(=O)Nc3ccccc3S2=O)cc1C (stereo not drawn) | > 100 | > 100 µM | > 100 µM | 41.8 µM | > 100 µM | > 100 µM | > 100 µM |  |  |  |  |  |  |  |  |  |  | 
Cc1cccc(C(C)(C)C)c1NC(=O)C(=O)C(C(=O)/C=C\c1ccccc1)C1OC(=O)c2ccccc21 (stereo not drawn) | > 100 | > 100 µM | > 100 µM | > 100 µM | > 100 µM | > 100 µM | > 100 µM |  |  |  |  |  |  |  |  |  |  | 
Clc1ccc(-n2nnc(C3=NCCN3)c2-c2ccccc2)cc1 | > 100 | > 100 µM | > 100 µM | > 100 µM | > 100 µM | > 100 µM | > 100 µM |  |  |  |  |  |  |  |  |  |  | 
Cc1ccccc1-c1c(N)nc(NC#N)nc1C(=O)Nc1ccccc1 | > 100 | > 100 µM | > 100 µM | > 100 µM | > 100 µM | > 100 µM | > 100 µM |  |  |  |  |  |  |  |  |  |  | 
[Cl][Bi]([O]c1ccccn1)[O]c1ccccn1 | > 100 | > 100 µM | > 100 µM | > 100 µM | > 100 µM | > 100 µM | > 100 µM | > 100 | > 100 | > 100 | > 100 µM | 57 µM | > 100 µM | > 100 |  |  |  | 
O=C(O)CNc1c2ccccc2nc2ccccc12 | > 100 | > 100 µM | > 100 µM | > 100 µM | > 100 µM | > 100 µM | > 100 µM |  |  |  |  |  |  |  |  |  |  | 
N#CC(C(=O)/C(=N/N)C(C#N)c1ccc(Cl)cc1)c1ccc(Cl)cc1 (stereo not drawn) | > 100 | > 100 µM | > 100 µM | > 100 µM | > 100 µM | > 100 µM | > 100 µM |  |  |  |  |  |  |  |  |  |  | 
COC(=O)C(CCS(=O)(=O)CC(=O)C(=O)Nc1cccc(C(C)=O)c1)C(=O)OC | > 100 | > 100 µM | > 100 µM | > 100 µM | > 55.2 µM | > 100 µM | > 100 µM |  |  |  |  |  |  |  |  |  |  | 

Compound | TGI (IGROV1 ovarian) [µM] | TGI (A549 NSCLC) | TGI (SF-268 CNS) | TGI (RXF 393 renal) | TGI (DMS 114 small cell lung) | TGI (EKVX NSCLC) | TGI (UACC-62 melanoma) | GI50 (IGROV1 ovarian) [µM] | GI50 (A549 NSCLC) [µM] | GI50 (SF-268 CNS) [µM] | GI50 (RXF 393 renal) | GI50 (DMS 114 small cell lung) | GI50 (EKVX NSCLC) | GI50 (UACC-62 melanoma) [µM] | TGI (HS 578T breast) [µM] | TGI (MDA-MB-435) [µM] | GI50 (HS 578T breast) [µM] | GI50 (MDA-MB-435) [µM]
COc1c(O)c2c(c3cc(C(=O)N4CCc5c4c(O)c(OC)c4[nH]c(C(=O)N6CC7CC78C6=CC(=O)c6[nH]cc(C)c68)cc54)[nH]c13)CCN2C(N)=O (stereo not drawn) | > 100 |  | 47.4 nM and > 100 µM and 0.00521 µg/mL | 447 nM and 0.0456 µg/mL | 15.1 nM and 0.0121 µg/mL | > 100 µM and 0.0904 µg/mL | 5.3 nM and 688 nM and 0.00323 µg/mL | 10.8 |  |  | 28.2 ng/mL | 2.76 ng/mL | 6.94 ng/mL |  | 3.41 | 0.783 |  | 
O=C1C(Cl)=C(Cl)C(=O)N1C1C2CC3CC(C2)CC1C3 (stereo not drawn) | > 100 | > 100 µM | > 100 µM | > 100 µM | > 100 µM | > 100 µM | > 100 µM |  |  |  |  |  |  |  |  |  |  | 
CCCCCCCCCCC/C(=N/O)c1ccc(O)c2ncccc12 |  | 35.8 µM | > 100 µM | 27.6 µM | 6.79 µM | 20.1 µM |  |  |  |  |  |  |  |  |  |  |  | 
CCCN(CCCCC(NC(C)=O)C(=O)NCc1ccccc1)C(=O)NCCCl (stereo not drawn) |  | > 100 µM | > 100 µM | > 100 µM | > 100 µM | > 100 µM | > 100 µM |  |  |  |  |  |  |  |  |  |  | 
C=C1[C@@H](C)[C@H]2[C@H](Cc3ccccc3)NC(=O)[C@]23OC(=O)/C=C/[C@H](O)CCC[C@@H](C)C/C=C/[C@H]3[C@@H]1O | 78.9 | > 97 µM | 73.6 µM | 27.9 µM | > 100 µM | > 100 µM | 66.2 µM |  |  |  |  |  |  |  |  |  |  | 
CC(C)N(C(=O)C12C3C4C5(C#N)C3C1(I)C5C42I)C(C)C (stereo not drawn) | > 100 | > 100 µM | > 100 µM | > 100 µM | > 59.7 µM | > 100 µM | > 100 µM |  |  |  |  |  |  |  |  |  |  | 
COC(=O)C1=C(C)N(NC(N)=O)C2(N)N(NC(N)=O)C(C)=C(C(=O)OC)C12C(=O)OC (stereo not drawn) | > 100 | > 100 µM | > 100 µM |  | > 100 µM | > 100 µM | > 100 µM |  |  |  |  |  |  |  |  |  |  | 
CCN1C2=NC(=O)N(C)C(=O)C2(Cl)C(C(SC)S(=O)(=O)c2ccc(C)cc2)c2ccccc21 (stereo not drawn) | > 100 | > 100 µM | > 100 µM |  | > 100 µM | > 100 µM | > 100 µM |  |  |  |  |  |  |  |  |  |  | 
Clc1ccc(Cl)c2[s+]snc12 | > 100 | > 100 µM | > 100 µM |  | > 66.8 µM | > 100 µM | > 100 µM |  |  |  |  |  |  |  |  |  |  | 
COC(=O)C1CC(C(=O)OC)c2nc3cc(C)ccc3nc21 (stereo not drawn) | > 100 | > 100 µM | > 100 µM |  | > 100 µM | > 100 µM | > 100 µM |  |  |  |  |  |  |  |  |  |  | 
COc1ccc2[nH]c(-c3ccccn3)cc(=O)c2c1 | > 100 | > 100 µM | 65.8 µM | 33.8 µM | 71.4 µM | > 100 µM | > 100 µM |  |  | 24.2 | 2.49 µM | 22.6 µM |  |  |  |  |  | 
Oc1ccc(Cc2ccc(O)c3ncccc23)c2cccnc12 | > 100 | 73.9 µM | > 100 µM | > 100 µM |  | > 100 µM | 0.804 µM | 0.0776 | 0.0371 | 0.0527 | 0.154 µM |  | 0.344 µM | 0.0408 | > 100 | > 100 | 0.0365 | 0.0383
C(=N\Nc1ccccn1)/c1ccccn1 | > 100 | > 100 µM | > 23.4 µM |  |  | > 100 µM | 2.28 µM | 0.355 | 0.501 | 0.309 | 0.335 µM |  | 0.348 µM | 0.327 | > 100 | > 100 | 1.41 | 0.483
C/C(=N/S(=O)(=O)c1ccc(Cl)c(Cl)c1)OCC(C)(C)C | > 100 | > 100 µM | > 100 µM | > 100 µM |  | > 100 µM | > 100 µM |  |  |  |  |  |  |  | > 100 | > 100 |  | 
O=C1c2cccc3cc([N+](=O)[O-])cc(c23)C(=O)N1CCNCCNCCNCCN1C(=O)c2cccc3cc([N+](=O)[O-])cc(c23)C1=O | 0.205 | 0.287 µM and 0.196 µM | 0.7 µM | 0.269 µM and 0.169 µM | 0.41 µM and 0.264 µM | 0.88 µM | 0.106 µM |  |  |  | 0.0162 µM |  |  |  |  |  |  | 
CC(=O)Nc1ccc(/C=C/[N+](=O)[O-])cc1 | 7.35 | 17.6 µM | 11.2 µM | 6.43 µM |  | 12.9 µM | 4 µM |  |  |  |  |  |  |  | 32.6 | 9.23 |  | 
